Source: US20140031388A1, “AKT INACTIVATION BY TOCOPHERYL DERIVATIVES” (priority 2012, published 2014)

Tests used:
[1] = target: T1, PH domain of Akt (GST-PH domain fusion protein) (Homo sapiens, UniProt P31749); test: Surface plasmon resonance binding, Akt PH domain; conditions: SPR, wild-type PH domain; means (n = 3) ± SD; read-out: Kd, Akt PH domain
T1 construct: made in house
Text: (§1) The cDNA fragments corresponding to the putative PH domain sequences of PHLPP1 (+115 to +372), PDK1 (+1225 to +1671), Akt1 (+1 to +447) and ILK (+538 to +646) were PCR-amplified using the plasmids pcDNA-HA-PHLPP1, pWZL-Neo-Myr-FLAG-PDPK1, pcDNA-HA-PKB-T308D-S473D, and pCMV-SPORT-ILK (Addgene) as templates. The PCR products were then cloned into EcoRI/XhoI sites of the pGEX-4T1 expression vector (GE Healthcare Life Sciences) to generate four constructs (pGEX-4T1-PHLPP1, pGEX-4T1-PDPK1, pGEX-4T1-AKT1, pGEX-4T1-ILK) for the expression of GST-PH domain fusion proteins. The mutated Akt1 Y38G PH domain was generated from pGEX-4T1-AKT1 by site-directed mutagenesis using the QuikChange II XL Site-Directed Mutagenesis Kit (Agilent Technologies). The expression and purification of GST-PH domain fusion proteins were performed essentially as described previously. Thomas et al., Curr Biol 12, 1256 (2002). The purified PH domains were analyzed by SDS-PAGE using an overloaded gel with purities were estimated to be >95% using ImageJ software.
(§2) Binding experiments were performed using a Biacore T100 system (GE Healthcare, Piscataway, N.J.). The GST-PH domain fusion proteins were immobilized on a CM5 S Sensorchip using Biacore's Amine Coupling Kit to a level of 17,000 response units. VE5 compounds and di-octanoyl PIP3 at concentrations ranging from 0.1 to 100 μM and 1 to 20 μm, respectively, were injected at a high flow rate (30 μL/min) over the biosensor surface for binding analyses. DMSO concentrations in all samples and running buffer were 1% (v/v) or less. Data were analyzed using Biacore T100 Evaluation Software.

[2] = test system: Akt membrane localization in LNCaP cells; test: Immunocytochemistry, membrane localization of Akt; format: cell-based; conditions: DMSO-treated cells 38.0±5.7%
Protocol: After 24 hours treatment, LNCaP cells were fixed in 4% formaldehyde for 20 min before permeabilization with 0.1% Triton X-100 in PBS at room temperature for 1 hour followed by incubation in 1% FBS (in PBS) for 1 hour. Cells were stained for endogenous PH domain-containing proteins (Akt, PHLPP, PDK-1, ILK, BTK) by incubation with specific antibodies (1:100), followed by incubation with the Alexa Fluor 555-conjugated goat anti-rabbit or Alexa Fluor 488-conjugated goat anti-mouse IgG (1:200) at room temperature for 2 hours. Both primary and secondary antibodies were diluted in incubation buffer containing 0.1% Triton X-100 and 0.2% bovine serum albumin in PBS. The cells were washed in PBS after each step and mounted using […] mounting medium supplemented with DAPI (Vector Laboratories Inc., Burlingame, Calif.). The slides were allowed to set for at least 4 hours before confocal images were acquired using a Zeiss LSM 510 inverted confocal laser scanning microscope operated with Zeiss LSM 510 software. Image analysis was performed using ImageJ (NIH) software.

[3] = test system: Normal prostate epithelial cells; test: Viability / apoptosis in normal prostate epithelial cells; format: cell-based; conditions: Epithelial cell
Protocol: (§3) The prostate cancer cell lines, LNCaP and PC-3, were purchased from American Type Culture Collection (Manassas, Va.) and maintained in RPMI 1640 medium containing 10% heat-inactivated fetal bovine serum at 37° C. in a humidified incubator containing 5% CO2. The LNCaP-abl cells were a generous gift from Dr. Qianben Wang (The Ohio State University). Normal prostate epithelial cells were purchased from Lonza (Walkersville, Md.) and were cultured in the vendor-recommended defined prostate epithelial cell growth medium. For experiments, LNCaP cells were plated on poly-D-lysine-coated culture flasks at a density of 12,000 cells per cm^2 surface area for 24 hours, followed by treatment with test agents in serum-free RPMI 1640 medium. The α- and γ-tocopherols were purchased from Sigma-Aldrich (St. Louis, Mo.). The tocopherol derivatives, α- and γ-VE5, were synthesized by the inventors.
(§4) LNCaP cells were plated into poly-D-lysine-coated 96-well plates and PC-3 and LNCaP-abl cells into uncoated plates at the density of 5,000 cells per well in the presence of 10% FBS. Normal prostate epithelial cells were plated into uncoated plates at a density of 8,000 cells per well. Exposure to test agents in serum-free medium was initiated 24 hours later. After 24 hours of treatment, cells were incubated with MTT [3-(4,5-dimethylthiazol-2-yl)-2,5-diphenyl-2H-tetrazolium bromide] (TCI America; 0.5 mg/ml, final concentration) for an additional 2 hours. The medium was then removed from each well and replaced with DMSO to dissolve the reduced MTT dye for subsequent colorimetric measurement of absorbance at 595 nm. Cell viabilities are calculated as percentages of that in the corresponding vehicle-treated control group.

LNCaP and PC-3 cells = test: MTT viability assay, one value stated for both prostate cancer lines; format: cell-based; conditions: for IC50: Homo sapiens, MTT, serum-free medium, one value for LNCaP and PC-3, read-out: IC50, antiproliferative effect / viability; for potency relative to parent tocopherol: Ser-473-Akt dephosphorylation and viability of prostate cancer cells
Protocol: as §3, §4

Akt1 Y38G PH domain = target: T2, Akt1 Y38G PH domain (Homo sapiens, UniProt P31749, Y38G); test: Surface plasmon resonance binding, Akt-Y38G PH domain mutant; conditions: SPR, P < 0.05 vs. Akt
T2 construct: made in house
Text: as §1
Binding experiments were performed using a Biacore T100 system (GE Healthcare, Piscataway, N.J.). The GST-PH domain fusion proteins were immobilized on a CM5 S Sensorchip using Biacore's Amine Coupling Kit to a level of 17,000 response units. […] Data were analyzed using Biacore T100 Evaluation Software.

[4] = target: T3, PH domain of ILK (GST-PH domain fusion protein) (Homo sapiens, UniProt Q13418); test: Surface plasmon resonance binding, ILK PH domain; conditions: SPR; means (n = 3) ± SD; read-out: Kd, ILK PH domain
T3 construct: made in house
T3 sequence (Q13418 180-212 limits assumed): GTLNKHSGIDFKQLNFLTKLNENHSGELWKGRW
Text: as §1, §2

[5] = target: T4, PH domain of PDK1 (GST-PH domain fusion protein) (Homo sapiens, UniProt O15530); test: Surface plasmon resonance binding, PDK1 PH domain; conditions: SPR; means (n = 3) ± SD; read-out: Kd, PDK1 PH domain
T4 construct: made in house
T4 sequence (O15530 459-550 limits assumed): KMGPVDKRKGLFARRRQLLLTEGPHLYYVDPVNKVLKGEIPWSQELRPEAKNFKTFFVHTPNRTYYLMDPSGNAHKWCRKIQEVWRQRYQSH
Text: as §1, §2

T2 sequence (P31749 5-108 Y38G limits assumed): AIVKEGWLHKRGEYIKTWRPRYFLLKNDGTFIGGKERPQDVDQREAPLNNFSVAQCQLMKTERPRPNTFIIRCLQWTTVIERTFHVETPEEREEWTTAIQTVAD
T1 sequence (P31749 5-108 limits assumed): as the sequence (P31749 5-108 Y38G limits assumed) above, with G34Y counted along it

| Compound | Kd [1] [nM] | cells with membrane localization of Akt [2] [%] | IC50 [3] [µM] | IC50 (LNCaP and PC-3 cells) [µM] | potency relative to parent tocopherol (LNCaP and PC-3 cells) [fold] | potency relative to parent tocopherol (LNCaP and PC-3 cells; listed as a-VE5) [fold] | Kd (Akt1 Y38G PH domain) [nM] | Kd [4] [µM] | Kd [5] [µM] |
| --- | --- | --- | --- | --- | --- | --- | --- | --- | --- |
| Cc1c(C)c2c(c(C)c1O)CC[C@@](C)(CCCC(C)C)O2 [α-VE5, (R)-2,5,7,8-tetramethyl-2-(4-methylpentyl)-chroman-6-ol] | 3400 | 65.0±8.9 | ~50 | 15 to 20 | 50 | 10 | 480 ± 130 | 26.6 ± 1 | 19.3 ± 0.6 |
| Cc1c(O)cc2c(c1C)O[C@](C)(CCCC(C)C)CC2 [γ-VE5, (R)-2,7,8-trimethyl-2-(4-methylpentyl)-chroman-6-ol] | 900 ± 100 | 71.4±2.5 | ~40 | 7 to 10 | – | – | 490 ± 20 | 18.7 ± 4.5 | 12.4 ± 0.1 |
